Measurements from PubChem BioAssay (NCI).
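Grown in 96-well plates, cells were treated for 48 hours with each compound at five concentrations. Insufficient inhibition: endpoint recorded as highest concentration tested. Abbreviation: GI50, concentration required for 50% inhibition of growth. TGI marks complete inhibition of growth.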

Tests used:
Assay in all cases: NCI tumour cell line growth inhibition, 48 h
NCI-H226 lung = tested on: NCI-H226 lung
HCC-2998 colon = tested on: HCC-2998 colon
CAKI-1 renal = tested on: CAKI-1 renal
SF-295 CNS = tested on: SF-295 CNS
COLO 205 colon = tested on: COLO 205 colon
BT-549 breast = tested on: BT-549 breast
MDA-N = tested on: MDA-N
CCRF-CEM leukemia = tested on: CCRF-CEM leukemia
HS 578T breast = tested on: HS 578T breast
T-47D breast = tested on: T-47D breast

| Compound | TGI (NCI-H226 lung) [µM] | TGI (HCC-2998 colon) [µM] | TGI (CAKI-1 renal) [µM] | TGI (SF-295 CNS) [µM] | TGI (COLO 205 colon) [µM] | TGI (BT-549 breast) [µM] | TGI (MDA-N) [µM] | TGI (CCRF-CEM leukemia) [µM] | TGI (HS 578T breast) [µM] | TGI (T-47D breast) [µM] | GI50 (NCI-H226 lung) [µM] | GI50 (HCC-2998 colon) [µM] | GI50 (COLO 205 colon) [µM] | GI50 (BT-549 breast) [µM] | GI50 (CCRF-CEM leukemia) [µM] | GI50 (SF-295 CNS) [µM] | GI50 (HS 578T breast) [µM] | GI50 (T-47D breast) [µM] | GI50 (CAKI-1 renal) [µM] |
| --- | --- | --- | --- | --- | --- | --- | --- | --- | --- | --- | --- | --- | --- | --- | --- | --- | --- | --- | --- |
| c1ccc(N=c2nc(N3CCOCC3)ss2)cc1 | > 100 | 45.1 | 34.5 | 35.1 |  |  |  |  |  |  |  |  |  |  |  |  |  |  |  |
| O=C(COc1ccc(OCC(=O)NNC2=NC(c3cc(F)c(Cl)cc3Cl)CS2)c(Cl)c1)NNC1=NC(c2cc(F)c(Cl)cc2Cl)CS1 (stereo unspecified) | 46 |  |  | 71.6 | > 100 | 66.1 | 92.9 | > 100 | 48.7 |  |  |  |  |  |  |  |  |  |  |
| CC(=O)OCC1=C(C(=O)O)C(c2ccc3c(c2)OCO3)c2cc3c(cc2O1)OCO3 (stereo unspecified) |  |  | > 100 | > 100 | > 100 |  |  | > 100 |  |  |  |  |  |  |  |  |  |  |  |
| NC1(C(=O)O)CCc2ccc(N(CCCl)CCCl)cc2C1 (stereo unspecified) | > 100 | > 100 |  | > 100 | > 100 |  |  | > 100 |  |  |  |  |  |  |  |  |  |  |  |
| CCOc1ccc(/C(C=O)=C(\Cl)c2ccc(OC)c(OC)c2)cc1 | > 100 |  | > 100 | > 100 | > 100 |  |  | > 100 |  |  |  |  |  |  |  |  |  |  |  |
| Cc1cc(C)nc(SCC(=O)OC2CC(C)CCC2C(C)C)n1 (stereo unspecified) |  |  | 48.6 | 31.6 | 31 | 79.9 |  | 42.5 | > 100 | 54.2 |  |  |  |  |  |  |  |  |  |
| Cc1cc2c(C(C)C)c(O)c(O)c(C=NCCO)c2c(O)c1-c1c(C)cc2c(C(C)C)c(O)c(O)c(C=NCCO)c2c1O | 6.88 | 8.25 | 19.5 | 5.51 | 3.03 |  |  | 5.78 |  |  |  |  |  |  |  |  |  |  |  |
| C=C1C(=O)O[C@@H]2[C@H]1CCC(C)=C1C=CC(=O)[C@]12C | 43.4 | 27.8 | 33.2 | 32.7 |  |  |  | 26 |  |  |  |  |  |  |  |  |  |  |  |
| Clc1ccc(CNc2nc(Cl)c3[nH]cnc3n2)cc1Cl | 78.9 | 53.2 | 79.9 | > 100 | 51.8 | 84.5 | > 100 | > 100 | 50.8 | 51.3 |  |  |  |  |  |  |  |  |  |
| COC(=O)[C@@]1(Cc2ccc(O)cc2)C[C@@H]2Cc3ccccc3N2N1 | > 100 |  | > 100 | > 100 | > 100 | > 100 | > 100 |  | > 100 | > 100 |  |  |  |  |  |  |  |  |  |
| Fc1ccc(-c2nn3c(-c4cc(C(F)(F)F)cc(C(F)(F)F)c4)nnc3s2)cc1 | > 50 | > 50 |  | > 50 | > 50 | > 50 |  | > 50 | > 50 |  | 1.49 | > 50 | > 50 | > 50 | > 50 | 1.72 | 1.76 |  |  |
| Cc1ccc(C2N=C(N)NC3=C2CCOc2c3ccc3ccccc23)cc1 (stereo unspecified) | > 88.4 | 76.4 | 28.5 | 62.2 | > 61.6 | > 79.8 |  | 3.71 | 67.7 | > 65.3 | 28.1 |  |  |  |  |  |  |  |  |
| Cc1c(-c2ccccc2)c(C#N)c2nnn(C3CCCCC3)c(=O)n12 | > 100 | > 100 | 47.1 | > 100 | > 100 | > 100 | > 100 | > 100 | > 100 | > 100 |  |  |  |  |  |  |  |  |  |
| O=C(Nc1c(C(=O)NC2CCCCC2)[nH]c(=O)[nH]c1=O)c1ccc(Cl)cc1 | > 100 |  | > 100 | > 100 | > 100 |  |  | > 100 |  |  |  |  |  |  |  |  |  |  |  |
| COc1cc(C(=O)C2C(=O)c3ccccc3C2C2(O)c3ccccc3CC2C(O)c2cc(OC)c(OC)c(OC)c2)cc(OC)c1OC (stereo unspecified) | > 100 | > 100 | > 100 | > 100 | > 100 | > 100 | > 100 |  | > 100 | > 100 |  |  |  |  |  |  |  |  |  |
| COc1c2c(cc3c1OCO3)C13C=CC(OC)CC1N(CC3)C2 (stereo unspecified) | > 100 | > 100 | > 100 | > 100 | > 100 | > 100 | > 100 | > 100 | > 100 | > 100 |  |  |  |  |  |  |  |  |  |
| CCCC(N)C(=O)c1ccccc1 (stereo unspecified) | > 100 | > 100 | > 100 | > 100 | > 100 |  |  | > 100 |  |  |  |  |  |  |  |  |  |  |  |
| O=C(Nc1ccc(Sc2ccc(N=Nc3c(O)c(S(=O)(=O)O)cc4cc(S(=O)(=O)O)ccc34)cc2)cc1)c1ccc(N=Nc2c(O)ccc3c(S(=O)(=O)O)cc(S(=O)(=O)O)cc23)cc1 | > 100 | > 100 | > 100 | > 100 | 35 |  |  | 77.4 |  |  |  |  |  |  |  |  |  |  |  |
| O=c1c2ccccc2nc2n1C(c1ccc([N+](=O)[O-])cc1)C2(c1ccccc1)c1ccccc1 (stereo unspecified) |  |  | > 100 | > 100 | > 100 | > 100 | > 100 | > 100 | > 100 | > 100 |  |  |  |  |  |  |  |  |  |
| CCC(=O)NC(Nc1cccc(F)c1)(C(F)(F)F)C(F)(F)F |  | > 100 | 93.9 | > 100 | > 100 | > 100 | > 100 | > 100 | > 100 | > 100 |  |  |  |  |  |  |  |  |  |
| CC(=O)O[C@H]1C=CC(=O)C(C)CC1C (stereo partly specified) | > 100 | > 100 | > 100 | > 100 | > 100 |  |  | > 100 |  |  |  |  |  |  |  |  |  |  |  |
| Cc1cc(C)c2c(c1)C1=NCCN1C2(O)c1ccc(Cl)cc1 (stereo unspecified) |  |  | 31.5 | 31.4 | 29 | 26.4 | 28.3 | 54.7 | 32 | 41.7 |  |  |  |  |  |  |  |  |  |
| CC(=O)C=NCC(=O)O | > 100 |  | > 100 | > 100 | > 100 | > 100 | > 100 | > 100 | > 100 | > 100 |  |  |  |  |  |  |  |  |  |
| O=C(O)C1CCC(=O)N1S(=O)(=O)c1ccccc1 (stereo unspecified) | > 100 | > 100 | > 100 | > 100 | > 100 |  |  | > 100 |  |  |  |  |  |  |  |  |  |  |  |
| COc1ccc(-c2nn(-c3cccc(NC(=O)Nc4ccccc4)c3)cc2-c2ccncc2)cc1Cl | 5.81 |  | 9.35 | 6.32 | 6.69 |  |  | 8.31 | 7.94 | 5.39 | 2.15 |  | 2.56 |  | 2.65 | 2.01 | 2.46 | 2.19 | 2.97 |
| c1ccc(-c2nnc(SCc3c[nH]c4ccccc34)n2-c2ccccc2)cc1 | > 100 | > 100 | > 100 | > 100 | > 100 | 98.7 | > 100 | > 100 | 93.5 | > 100 |  |  |  |  |  |  |  |  |  |
| CC(C)(C)OC(=O)NCCC(=O)NC1(c2cc3ccccc3s2)CCCCC1 | 42.4 | 47.5 | 48.6 | 36.5 | 32.9 | 32.5 | 34.2 | 27.5 | 48.8 | 33.3 |  |  |  |  |  |  |  |  |  |
